Laboratory results: patent US4824863A, “Antibiotic A80438” (Eli Lilly and Company, priority 1985, dated 1989)
Residues, ends and D or L forms follow the SMILES beside them.

Legend:
coccidiosis = conditions: alone; Science 122, 244 (1955); cited from earlier work
[1] = tested on: Culture A80438 (Streptomyces bobili NRRL 15971); test: Antibiotic sensitivity discs on seeded ISP No. 2 agar plates; conditions: sensitivity disc
[2] = tested on: A80438 (Streptomyces bobili NRRL 15971); test: Streptomycin inhibition (taxonomic comparison); conditions: culture A80438
S. bobili = conditions: published descriptions; cited from earlier work
[3] = tested on: Culture A80438 (Streptomyces bobili NRRL 15971); test: Resistance to lysozyme; format: cell-based
Description: Resistance to lysozyme was measured by methods recommended by Gordon and Barnett [R. E. Gordon and D. A. Barnett, "Resistance to Rifampin and Lysozyme of Strains of Some Species of Mycobacterium and Nocardia as a Taxonomic Tool", Int. J. Syst. Bacteriol. 27, 176-178 (1977)].

O=C(Nc1ccc([N+](=O)[O-])cc1)Nc1ccc([N+](=O)[O-])cc1 [4,4'-dinitrocarbanilide]
Anticoccidial activity (coccidiosis): exhibits anticoccidial activity

CC[C@H](C)[C@H](N)C1=N[C@H](C(=O)N[C@@H](CC(C)C)C(=O)N[C@H](CCC(=O)O)C(=O)N[C@H](C(=O)N[C@H]2CCCCNC(=O)[C@H](CC(N)=O)NC(=O)[C@@H](CC(=O)O)NC(=O)[C@H](Cc3cnc[nH]3)NC(=O)[C@@H](Cc3ccccc3)NC(=O)[C@H]([C@@H](C)CC)NC(=O)[C@@H](CCCN)NC2=O)[C@@H](C)CC)CS1 [bacitracin] (HELM PEPTIDE1{[CC[C@H](C)[C@H](N)C1=N[C@H](C(=O)[*:2])CS1].L.[dE].I.K.[NCCC[C@@H](N[*:1])C(=O)[*:2]].I.[dF].H.[dD].N}$PEPTIDE1,PEPTIDE1,5:R3-11:R2$$$V2.0)
Resistance/sensitivity of culture A80438 ([1]; 10 units): sensitive

CC(=O)OCC1=C(C(=O)O)N2C(=O)[C@@H](NC(=O)Cc3cccs3)[C@H]2SC1 [cephalothin]
Resistance/sensitivity of culture A80438 ([1]; 30 μg): resistant

CCC[C@@H]1C[C@@H](C(=O)N[C@@H]([C@H]2O[C@H](SC)[C@H](O)[C@@H](O)[C@H]2O)[C@@H](C)O)N(C)C1 [lincomycin]
Resistance/sensitivity of culture A80438 ([1]; 2 μg): resistant

CO[C@H]1C[C@H](O[C@H]2[C@H](C)[C@@H](O[C@@H]3O[C@H](C)C[C@H](N(C)C)[C@H]3O)[C@@H](C)C[C@@]3(CO3)C(=O)[C@H](C)[C@@H](O)[C@@H](C)[C@@H](C)OC(=O)[C@@H]2C)O[C@@H](C)[C@@H]1O [oleandomycin]
Resistance/sensitivity of culture A80438 ([1]; 15 units): sensitive

CC1(C)S[C@@H]2[C@H](NC(=O)Cc3ccccc3)C(=O)N2[C@H]1C(=O)O [penicillin G]
Resistance/sensitivity of culture A80438 ([1]; 10 units): resistant

CO[C@H]1/C=C/O[C@@]2(C)Oc3c(C)c(O)c4c(O)c(c(/C=N/N5CCN(C)CC5)c(O)c4c3C2=O)NC(=O)/C(C)=C\C=C\[C@H](C)[C@H](O)[C@@H](C)[C@@H](O)[C@@H](C)[C@H](OC(C)=O)[C@@H]1C [rifampin]
Resistance/sensitivity of culture A80438 ([1]; 5 μg): sensitive

[H]/N=C(/N)N[C@H]1[C@H](O)[C@@H](O)[C@H](O[C@@H]2O[C@@H](C)[C@](O)(C=O)[C@H]2O[C@@H]2O[C@@H](CO)[C@H](O)[C@@H](O)[C@@H]2NC)[C@@H](N/C(N)=N\[H])[C@@H]1O [streptomycin]
Streptomycin inhibition [2]: + | Resistance/sensitivity of culture A80438 ([1]; 10 μg): sensitive | Streptomycin inhibition (S. bobili): +

CN(C)C1C(=O)C(C(N)=O)=C(O)C2(O)C(=O)C3=C(O)c4c(O)cccc4C(C)(O)C3CC12 (stereo not shown) [tetracycline]
Resistance/sensitivity of culture A80438 ([1]; 30 μg): sensitive

NC[C@H]1O[C@H](O[C@H]2[C@H](O)[C@@H](O[C@H]3O[C@H](CO)[C@@H](O)[C@H](N)[C@H]3O)[C@H](N)C[C@@H]2N)[C@H](N)C[C@@H]1O [tobramycin]
Resistance/sensitivity of culture A80438 ([1]; 10 μg): sensitive

CN[C@H](CC(C)C)C(=O)N[C@H]1C(=O)N[C@@H](CC(N)=O)C(=O)N[C@H]2C(=O)N[C@H]3C(=O)N[C@H](C(=O)N[C@H](C(=O)O)c4cc(O)cc(O)c4-c4cc3ccc4O)[C@H](O)c3ccc(c(Cl)c3)Oc3cc2cc(c3O[C@@H]2O[C@H](CO)[C@@H](O)[C@H](O)[C@H]2O[C@H]2C[C@](C)(N)[C@H](O)[C@H](C)O2)Oc2ccc(cc2Cl)[C@H]1O [vancomycin]
Resistance/sensitivity of culture A80438 ([1]; 30 μg): sensitive

gentamicin
Resistance/sensitivity of culture A80438 ([1]; 10 μg): sensitive

lysozyme
Resistance/sensitivity of culture A80438 to lysozyme [3]: sensitive

neomycin
Resistance/sensitivity of culture A80438 ([1]; 30 μg): sensitive
